Reference: article PMC8162438, “Cancer cell-selective modulation of mitochondrial respiration and metabolism by potent organogold(III) dithiocarbamates” (Chemical Science, 2020)

Tested on: MDA-MB-231
Experiment: Cell fraction gold uptake by GF-AAS
Assay type: cell-based
Conditions: MDA-MB-231, 5 μM, 24 h
Experimental: We next performed cellular uptake studies to determine what percentage of the compounds were getting into the cell after treatment. Given that most therapeutic targets are localized receptors on the plasma membrane, quantifying the amount of gold compounds in cellular fractions and investigating their mode of uptake is crucial. For whole-cell uptake studies, MDA-MB-231 were treated with all 10 compounds and Auranofin at 5 μM for 24 h (Fig. 5A). Auranofin is the only gold-based therapeutic to be clinically approved, therefor we used this drug as a benchmark for comparison.[67] After treatment, the cells were washed with PBS, centrifuged, and digested with 0.5 mL of conc. HNO3 and diluted with DI water and subjected to ICP-OES analysis. […] Given that these complexes readily react with nucleophilic biological molecules and the lack of accumulation in the nuclear fraction, it is evident that the mechanism of action of this class of compounds is differentiated from the clinically available platinum agents. […]
and treated at a final concentration of 5 µ M and treated for 24 hours as well. The cells were then collected by trypsinization and centrifuged at 2000 rpm for 5 minutes to form a pellet. The pellet was suspended in 1 mL of DMEM, transferred to a 1.5 mL Eppendorf tube, and centrifuged again at 2000 rpm for 5 minutes. […]

For `C[N+](C)=C1[S][Au-2]2([S]1)[c]1ccccc1Cc1cccc[n+]12.F[P-](F)(F)(F)(F)F` (stereo not shown) [2a], the “Au content localized in the cytoplasm and total membrane fraction (pellet)” value was greater than 90%.
